This passage reports IC50 results from US11459324B2, “O-glycoprotein-2-acetamido-2-deoxy-3-D-glycopyranosidase inhibitors” (BIOGEN MA INC., priority 2018, dated 2022).

Molecules are shown by their SMILES.

The target of this assay is T1, Recombinant full length human OGA enzyme (Homo sapiens, UniProt O60502).
T1 construct: Recombinant full length human OGA enzyme was purchased from Origene; purchased Origene
T1 sequence (O60502 1-916): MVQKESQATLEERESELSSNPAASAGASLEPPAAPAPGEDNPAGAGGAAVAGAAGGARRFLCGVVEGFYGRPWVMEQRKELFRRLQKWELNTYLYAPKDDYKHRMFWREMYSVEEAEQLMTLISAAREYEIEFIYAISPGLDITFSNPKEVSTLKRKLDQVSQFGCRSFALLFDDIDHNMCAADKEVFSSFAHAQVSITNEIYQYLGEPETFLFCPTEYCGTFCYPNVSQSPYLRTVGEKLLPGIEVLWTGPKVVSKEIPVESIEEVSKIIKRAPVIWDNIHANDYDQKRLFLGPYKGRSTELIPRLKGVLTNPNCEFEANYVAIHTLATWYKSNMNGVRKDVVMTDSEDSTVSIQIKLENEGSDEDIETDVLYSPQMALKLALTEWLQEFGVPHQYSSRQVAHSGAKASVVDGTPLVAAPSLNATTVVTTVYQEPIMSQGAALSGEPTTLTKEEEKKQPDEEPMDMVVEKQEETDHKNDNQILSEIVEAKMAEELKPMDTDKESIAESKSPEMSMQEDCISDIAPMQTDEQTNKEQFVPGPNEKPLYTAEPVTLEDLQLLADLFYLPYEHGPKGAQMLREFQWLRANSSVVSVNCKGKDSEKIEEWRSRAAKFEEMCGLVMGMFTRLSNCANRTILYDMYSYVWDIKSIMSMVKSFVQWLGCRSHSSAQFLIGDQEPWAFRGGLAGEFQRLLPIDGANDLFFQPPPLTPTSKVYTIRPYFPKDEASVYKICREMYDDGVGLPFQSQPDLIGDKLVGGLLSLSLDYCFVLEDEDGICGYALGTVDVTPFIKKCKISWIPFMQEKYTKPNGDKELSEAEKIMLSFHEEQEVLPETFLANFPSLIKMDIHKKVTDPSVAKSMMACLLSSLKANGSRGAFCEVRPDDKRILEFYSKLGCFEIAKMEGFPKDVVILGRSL
Put plainly: OGA Enzyme Inhibition Biochemical Assay. As to conditions: 1 nM OGA, 100 μM 4-MUGlcNAc (Km), pH 6.4, 90 minutes at room temperature, 10-point dose-response from 20 μM. In outline: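 Full-length human OGA at 1 nM with 100 μM 4-MUGlcNAc (Km) in McIlvaine buffer pH 6.4 plus 0.01% BSA, 90 min at room temperature, then glycine pH 10 quench. Fluorescence read at Ex 355/Em 460 nm. 10-point, 4-fold dose-response from 20 μM, 4-parameter variable-slope fit.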
In the case of `CC(=O)Nc1nc(F)c(CN2CCCC(Cc3noc(C)n3)C2)s1` (stereo not shown) [Example 4-18, N-(4-fluoro-5-((3-((5-methyl-1,2,4-oxadiazol-3-yl)methyl)piperidin-1-yl)methyl)thiazol-2-yl)acetamide], the IC50 amounted to 6.6 nM.

Take `CC(=O)Nc1ncc(CN2CCCC(Cc3noc(C)n3)C2)s1` (stereo not shown) [Example 4-19, N-(5-((3-((5-methyl-1,2,4-oxadiazol-3-yl)methyl)piperidin-1-yl)methyl)thiazol-2-yl)acetamide]: the IC50 was 9.3 nM. With `CC(=O)Nc1ncc(CN2CCCC(Cn3ccnn3)C2)s1` (stereo not shown) [Example 4-20, N-(5-((3-((1H-1,2,3-triazol-1-yl)methyl)piperidin-1-yl)methyl)thiazol-2-yl)acetamide] the figure was 55 nM; with `CC(=O)Nc1ncc(CN2CCCC(Cn3cncn3)C2)s1` (stereo not shown) [Example 4-21, N-(5-((3-((1H-1,2,4-triazol-1-yl)methyl)piperidin-1-yl)methyl)thiazol-2-yl)acetamide], 38 nM; with `CC(=O)Nc1ncc(CN2CCCC(Cc3nccn3C)C2)s1` (stereo not shown) [Example 4-22, N-(5-((3-((1-methyl-1H-imidazol-2-yl)methyl)piperidin-1-yl)methyl)thiazol-2-yl)acetamide], 43 nM. With `CC(=O)Nc1ncc(CN2CCCC(Cc3nnc4ccccn34)C2)s1` (stereo not shown) [Example 4-23, N-(5-((3-([1,2,4]triazolo[4,3-a]pyridin-3-ylmethyl)piperidin-1-yl)methyl)thiazol-2-yl)acetamide] the figure was 27 nM; with `CC(=O)Nc1ncc(CN2CCCC(Cn3cnc4ccccc43)C2)s1` (stereo not shown) [Example 4-24, N-(5-((3-((1H-benzo[d]imidazol-1-yl)methyl)piperidin-1-yl)methyl)thiazol-2-yl)acetamide], 58 nM.
